Test results published in patent publication US5880111A, “Therapeutic derivations of diphosphonates” (priority 1995, dated 1999).
Values after ≈ are worked out from the molar mass of the structure shown. Where two headings read alike, the source gives them in different places.

How the values were obtained:
Experiment in all cases: MIC by broth-dilution method
Assay type in all cases: cell-based
[1] = test system: Staphylococcus epidermidis OKI 110001
Method: (§1) The antibacterial action of the product was evaluated against the following bacterial strains:
Staphylococcus epidermidis OKI 110001
(§2) The sensitivity of the foregoing bacterial strains to both the product of Example 1 and norfloxacin was investigated by the broth-dilution method, and the minimal inhibitory concentration (MIC) values were assessed. MIC was defined as the lowest concentration ([…]) at which no bacterial growth could be observed visually.
(§3) The antibiotics were dissolved in dimethylsulfoxide (DMSO) and the solution was diluted by nine consecutive 2-fold dilutions in Nutrient-broth (NB) culture medium. Aliquots (0.2 ml) from each of these diluted solutions were added to test tubes containing 1.6 ml NB culture medium. The antibiotics were investigated in the concentration range of 100-0.38 μg/ml.
(§4) After overnight culture in NB at 37° C., the bacterial cultures were diluted so that their optical densities (OD) at 620 nm were between 0.08-0.1.
(§5) Incubation of the test tubes took place in a thermostat at 37° C. The test tubes were inspected visually after 24 and 48 hours. The margin of error of in vitro sensitivity determination was ± one dilution step. MIC values were read after 48 hours of incubation. The MIC value was the lowest antibiotic concentration at which no bacterial growth was observed, i.e. the culture medium remained clear. […]

[2] = test system: Escherichia coli OKI 35034
Method: as §1
Escherichia coli OKI 35034
as §2, §3, §4, §5

[3] = test system: Salmonella typhi OKI 10084; conditions: Salmonella enterica
Method: as §1
Gram negative bacteria: Salmonella typhi OKI 10084
as §2, §3, §4, §5

[4] = test system: Staphylococcus aureus ATCC 25923
Method: as §1
Gram positive bacteria: Staphylococcus aureus ATCC 25923
as §2, §3, §4, §5

[5] = test system: Proteus vulgaris OKI 60002
Method: as §1
Proteus vulgaris OKI 60002
as §2, §3, §4, §5

[6] = test system: Pseudomonas aeruginosa ATCC 27853
Method: as §1
Pseudomonas aeruginosa ATCC 27853
as §2, §3, §4, §5

[7] = test system: Streptococcus faecalis OKI 80171; conditions: Enterococcus faecalis, OKI80171, Nutrient-broth, 37° C., read after 48 hours, mean of three independent experiments
Method: as §1
Streptococcus faecalis OKI 80171
as §2, §3, §4, §5

CCOP(=O)(OCC)C(CN1CCN(c2cc3c(cc2F)c(=O)c(C(=O)O)cn3CC)CC1)P(=O)(OCC)OCC [Example 1, 6-Fluoro-1-ethyl-7-{4-[2,2-bis(diethoxyphosphono)-1-ethyl]-l-piperazyl}-4-oxo-1,4-dihydroquinoline-3-carboxylic acid]
MIC ([1]; Staphylococcus epidermidis, OKI110001, 48 h): 12.5 µg/mL (≈ 20.2 µM)
MIC ([2]; Escherichia coli, OKI35034, 48 h): 25 µg/mL (≈ 40.4 µM)
MIC ([3]; Salmonella typhi OKI 10084, Nutrient-broth, 37° C., read after 48 hours, mean of three independent experiments, read-out: MIC): 25 µg/mL (≈ 40.4 µM)
MIC ([4]; Staphylococcus aureus, ATCC25923, 48 h): 12.5 µg/mL (≈ 20.2 µM)
MIC ([5]; Proteus vulgaris, OKI60002, 48 h): 3.12 µg/mL (≈ 5.04 µM)
MIC ([6]; Pseudomonas aeruginosa, ATCC27853, 48 h): 50 µg/mL (≈ 80.7 µM)
MIC [7]: 12.5 µg/mL (≈ 20.2 µM)

CCn1cc(C(=O)O)c(=O)c2cc(F)c(N3CCNCC3)cc21 [NORFLOXACIN, norfloxacin]
MIC ([1]; OKI110001, Staphylococcus epidermidis OKI 110001, Nutrient-broth, 37° C., read after 48 hours, only two experiments, read-out: MIC): 6.25 µg/mL (≈ 19.6 µM)
MIC ([2]; OKI35034, Escherichia coli OKI 35034, Nutrient-broth, 37° C., read after 48 hours, mean of three independent experiments, read-out: MIC): 6.25 µg/mL (≈ 19.6 µM)
MIC ([3]; TYPHI, 48 h): 12.5 µg/mL (≈ 39.1 µM)
MIC ([4]; ATCC25923, Staphylococcus aureus ATCC 25923, Nutrient-broth, 37° C., read after 48 hours, mean of three independent experiments, read-out: MIC): 6.25 µg/mL (≈ 19.6 µM)
MIC ([5]; OKI60002, Proteus vulgaris OKI 60002, Nutrient-broth, 37° C., read after 48 hours, mean of three independent experiments, read-out: MIC): 6.25 µg/mL (≈ 19.6 µM)
MIC ([6]; ATCC27853, Pseudomonas aeruginosa ATCC 27853, Nutrient-broth, 37° C., read after 48 hours, mean of three independent experiments, read-out: MIC): 25 µg/mL (≈ 78.3 µM)
MIC [7]: 12.5 µg/mL (≈ 39.1 µM)
